Consider three molecules from PubChem BioAssay AID1259407 (Chemical Carcinogenesis Research Information System (CCRIS), 2018).

SMILES strings stand for the structures. Calls of active or inactive are those of the source. How the calls were made is not given here.

The test system of this data set is CCRIS mutagenicity, Ames/micronucleus/aberration tests. The experiment in a line: CCRIS mutagenicity studies.

On to `CCCCCCCCC1CO1` (stereo not drawn), for which the mutagenic call (Test System: AMES SALMONELLA TYPHIMURIUM, Strain/Indicator: TA97, Metabolic Activation: HAMSTER, LIVER, S-9, AROCLOR 1254 (10% & 30%), Method: PREINCUBATION) was “inactive; negative”; the mutagenic call (Test System: AMES SALMONELLA TYPHIMURIUM, Strain/Indicator: TA97, Metabolic Activation: NONE, Method: PREINCUBATION) was “inactive; negative”; the mutagenic call (Test System: AMES SALMONELLA TYPHIMURIUM, Strain/Indicator: TA97, Metabolic Activation: RAT, LIVER, S-9, AROCLOR 1254 (10% & 30%), Method: PREINCUBATION) was “inactive; negative”; the mutagenic call (Test System: AMES SALMONELLA TYPHIMURIUM, Strain/Indicator: TA98, Metabolic Activation: HAMSTER, LIVER, S-9, AROCLOR 1254 (10% & 30%), Method: PREINCUBATION) was “inactive; negative”; the mutagenic call (Test System: AMES SALMONELLA TYPHIMURIUM, Strain/Indicator: TA98, Metabolic Activation: NONE, Method: PREINCUBATION) is “inactive; negative”; the mutagenic call (Test System: AMES SALMONELLA TYPHIMURIUM, Strain/Indicator: TA98, Metabolic Activation: RAT, LIVER, S-9, AROCLOR 1254 (10% & 30%), Method: PREINCUBATION) was “inactive; negative”. The mutagenic call (Test System: AMES SALMONELLA TYPHIMURIUM, Strain/Indicator: TA100, Metabolic Activation: HAMSTER, LIVER, S-9, AROCLOR 1254 (10% & 30%), Method: PREINCUBATION) is “inactive; negative”; the mutagenic call (Test System: AMES SALMONELLA TYPHIMURIUM, Strain/Indicator: TA100, Metabolic Activation: NONE, Method: PREINCUBATION) was “inactive; negative”; the mutagenic call (Test System: AMES SALMONELLA TYPHIMURIUM, Strain/Indicator: TA100, Metabolic Activation: RAT, LIVER, S-9, AROCLOR 1254 (10% & 30%), Method: PREINCUBATION) was “inactive; negative”; the mutagenic call (Test System: AMES SALMONELLA TYPHIMURIUM, Strain/Indicator: TA1535, Metabolic Activation: HAMSTER, LIVER, S-9, AROCLOR 1254 (10% & 30%), Method: PREINCUBATION) is “inactive; negative”; the mutagenic call (Test System: AMES SALMONELLA TYPHIMURIUM, Strain/Indicator: TA1535, Metabolic Activation: NONE, Method: PREINCUBATION) was “inactive; negative”; the mutagenic call (Test System: AMES SALMONELLA TYPHIMURIUM, Strain/Indicator: TA1535, Metabolic Activation: RAT, LIVER, S-9, AROCLOR 1254 (10% & 30%), Method: PREINCUBATION) was “inactive; negative”. In addition, the mutagenic call reads like this: (Test System: AMES SALMONELLA TYPHIMURIUM, Strain/Indicator: TA1537, Metabolic Activation: HAMSTER, LIVER, S-9, AROCLOR 1254 (10% & 30%), Method: PREINCUBATION) “inactive; negative”; (Test System: AMES SALMONELLA TYPHIMURIUM, Strain/Indicator: TA1537, Metabolic Activation: NONE, Method: PREINCUBATION) “inactive; negative”; (Test System: AMES SALMONELLA TYPHIMURIUM, Strain/Indicator: TA1537, Metabolic Activation: RAT, LIVER, S-9, AROCLOR 1254 (10% & 30%), Method: PREINCUBATION) “inactive; negative”; (Test System: UDS RAT HEPATOCYTES, Strain/Indicator: THY INCORP, Metabolic Activation: NONE) “inactive; negative”.
Regarding `O=C1NC(=O)C(C(Cl)Cl)=C1Cl`, the mutagenic call (Test System: AMES SALMONELLA TYPHIMURIUM, Strain/Indicator: TA100, Metabolic Activation: NONE, Method: STANDARD PLATE) was “active; positive”.
`O=C(O)C1CCCN1` (stereo not drawn): the mutagenic call (Test System: AMES SALMONELLA TYPHIMURIUM, Strain/Indicator: TA98, Metabolic Activation: RAT LIVER S-9, CHLOROPHENE, Method: STANDARD PLATE (COMPOUND HEATED AT 250 DEGREES CELSIUS FOR 20 MIN)) was “active; positive”.
